Measurements as given in ChEMBL document CHEMBL1201862, “PubChem BioAssay data set” (2004).
The source made the active and inactive calls.

Columns and labels:
[1] = HEp-2 cell cytotoxicity, dose response, cytotoxicity control for RSV inhibitor project, HTS (AID 2410); format: functional; settings: human respiratory syncytial virus
[2] = target: T1, Methionyl-tRNA synthetase, putative (Trypanosoma brucei brucei, UniProt Q38C91); format: functional, Trypanosoma brucei brucei strain 927/4 GUTat10.1
T1 sequence (Q38C91 whole entry): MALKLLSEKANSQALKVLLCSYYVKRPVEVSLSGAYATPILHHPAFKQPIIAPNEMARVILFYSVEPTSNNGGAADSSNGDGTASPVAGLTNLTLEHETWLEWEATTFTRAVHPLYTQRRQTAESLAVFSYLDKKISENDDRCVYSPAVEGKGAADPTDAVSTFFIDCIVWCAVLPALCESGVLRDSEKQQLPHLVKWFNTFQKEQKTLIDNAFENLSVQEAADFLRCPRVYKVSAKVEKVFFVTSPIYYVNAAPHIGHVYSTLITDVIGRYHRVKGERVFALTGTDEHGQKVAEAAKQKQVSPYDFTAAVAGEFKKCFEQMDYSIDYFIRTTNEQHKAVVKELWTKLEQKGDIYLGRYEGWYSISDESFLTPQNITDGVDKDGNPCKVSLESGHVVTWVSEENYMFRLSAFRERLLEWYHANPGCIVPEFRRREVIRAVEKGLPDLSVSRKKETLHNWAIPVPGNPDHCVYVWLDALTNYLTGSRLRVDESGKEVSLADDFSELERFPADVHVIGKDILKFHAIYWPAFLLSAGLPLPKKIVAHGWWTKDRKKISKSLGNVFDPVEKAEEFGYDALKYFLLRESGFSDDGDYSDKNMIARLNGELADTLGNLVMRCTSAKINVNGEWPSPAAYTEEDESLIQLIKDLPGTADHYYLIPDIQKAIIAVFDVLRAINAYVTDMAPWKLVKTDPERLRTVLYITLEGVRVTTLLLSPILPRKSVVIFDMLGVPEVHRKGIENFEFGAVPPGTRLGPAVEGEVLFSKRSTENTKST

[3] = Counterscreen for inhibitors of Trypanosoma brucei methionyl tRNA synthetase (MetRS): Luminescence-based cell-based high throughput dose response assay to identify compounds that are cytotoxic to Jurkat human T lymphocyte cells.; format: functional
[4] = target: T1, Methionyl-tRNA synthetase, putative; format: functional, Trypanosoma brucei brucei strain 927/4 GUTat10.1; remark: listed apart in the source
[5] = target: T2, Streptokinase A (Streptococcus pyogenes serotype M1, UniProt P10520); assay: S. pyogenes streptokinase expression inhibitors, potency, dose response, plasminogen activation absorbance, OD405 (AID 1914); format: functional, Streptococcus pyogenes M1 GAS;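 also: secreted streptokinase activity via plasminogen activation per viability signal from cell pellet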
T2 sequence (P10520 whole entry): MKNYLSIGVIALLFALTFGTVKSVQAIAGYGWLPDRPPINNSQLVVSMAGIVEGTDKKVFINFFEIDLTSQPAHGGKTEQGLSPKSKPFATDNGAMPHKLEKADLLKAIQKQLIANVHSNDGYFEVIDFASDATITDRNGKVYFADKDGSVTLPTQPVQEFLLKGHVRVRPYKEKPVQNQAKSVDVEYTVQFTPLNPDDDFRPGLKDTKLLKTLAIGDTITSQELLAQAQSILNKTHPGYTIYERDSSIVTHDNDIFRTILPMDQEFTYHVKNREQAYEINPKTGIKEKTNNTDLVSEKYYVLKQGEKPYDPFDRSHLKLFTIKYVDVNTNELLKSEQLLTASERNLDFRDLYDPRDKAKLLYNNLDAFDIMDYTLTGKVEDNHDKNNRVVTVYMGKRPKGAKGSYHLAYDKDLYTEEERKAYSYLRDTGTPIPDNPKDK

[6] = target: T3, Calpain-2 catalytic subunit (Sus scrofa, UniProt P43367); assay: pig calpain II inhibitor potency, dose response, biochemical, fluorogenic peptide substrate (AID 1420); format: functional
T3 sequence (P43367 whole entry): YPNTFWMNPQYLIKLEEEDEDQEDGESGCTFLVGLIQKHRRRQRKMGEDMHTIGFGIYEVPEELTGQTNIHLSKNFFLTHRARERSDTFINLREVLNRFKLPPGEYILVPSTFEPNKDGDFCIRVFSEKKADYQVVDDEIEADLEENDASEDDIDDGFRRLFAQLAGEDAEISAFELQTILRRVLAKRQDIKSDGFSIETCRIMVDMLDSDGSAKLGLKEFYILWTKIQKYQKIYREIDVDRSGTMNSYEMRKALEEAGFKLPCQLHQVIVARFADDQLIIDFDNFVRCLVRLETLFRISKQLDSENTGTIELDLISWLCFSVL

[7] = NIH-3T3 fibroblast cytotoxicity, dose response, cytotoxicity control, cell-based, fluorescence, Alamar Blue, secondary assay (AID 2327); format: functional;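 also: NIH-3T3 mouse fibroblasts cultured with fluconazole at 8 µg/mL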
[8] = C. albicans growth with fluconazole, confirmation, fluorescence, retest (AID 2467); format: functional, cell-based
[9] = target: Mitogen-activated protein kinase 10 (Homo sapiens, UniProt P53779); assay: Dose response biochemical screening assay for inhibitors of c-Jun N-Terminal Kinase 3 (JNK3). [Related pubchem assays: 746 ]
[10] = target: Paired box protein Pax-8 (Homo sapiens, UniProt Q06710); assay: inhibitors of PAX8-driven TPO luciferase reporter, dose response, RMG-I cells, cherry-pick (AID 687027); format: functional, cell-based;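 also: luciferase reporter driven by Pax8 target thyroperoxidase promoter measured by SteadyGlo luminescence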
[11] = cytotoxicity in OVCAR8 ovarian cancer cells, dose response, PAX8 project, cell-based, plate reader, dry powder samples (AID 743197); format: functional; settings: OVCAR-8
[12] = target: Luciferin 4-monooxygenase (Photinus pyralis, UniProt P08659); assay: firefly luciferase enzyme inhibitors, dose response, biochemical, luminescence (AID 1891)
[13] = Luminescence Cell-Based Dose Confirmation HTS to Identify Inhibitors of Platelet Dense Granule Release. [Related pubchem assays: 1663 (Primary HTS), 1678 (Summary of Project)]; format: functional
[14] = target: T4, Protein skinhead-1 (Caenorhabditis elegans, UniProt P34707); format: functional
T4 sequence (P34707 whole entry): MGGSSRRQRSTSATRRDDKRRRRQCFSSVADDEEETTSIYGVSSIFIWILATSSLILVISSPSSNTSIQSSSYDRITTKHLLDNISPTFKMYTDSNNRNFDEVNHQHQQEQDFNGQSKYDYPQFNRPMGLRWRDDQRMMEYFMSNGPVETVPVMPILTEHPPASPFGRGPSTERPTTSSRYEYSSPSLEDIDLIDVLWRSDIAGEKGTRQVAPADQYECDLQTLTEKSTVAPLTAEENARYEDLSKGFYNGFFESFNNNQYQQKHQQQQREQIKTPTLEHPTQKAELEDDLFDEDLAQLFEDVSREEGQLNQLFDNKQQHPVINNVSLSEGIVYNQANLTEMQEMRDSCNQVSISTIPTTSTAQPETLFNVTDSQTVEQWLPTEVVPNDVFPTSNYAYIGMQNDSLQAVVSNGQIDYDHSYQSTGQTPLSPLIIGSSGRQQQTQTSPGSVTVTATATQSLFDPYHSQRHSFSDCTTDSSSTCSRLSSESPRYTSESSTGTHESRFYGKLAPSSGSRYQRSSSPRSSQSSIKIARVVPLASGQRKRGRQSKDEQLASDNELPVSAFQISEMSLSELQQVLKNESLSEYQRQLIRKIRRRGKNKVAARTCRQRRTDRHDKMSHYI

[15] = target: T5, Oxysterols receptor LXR-beta (Homo sapiens, UniProt P55055); format: functional, cell-based;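 also: Cell-based luminescence dose-response assay of agonist activity at LXR, run as a confirmatory counterscreen to a daf-12 agonist screen; HEK293 cells with Gal4-LXR fusion and GAL4-driven luciferase reporter; agonist potency from rising luciferase signal of a Gal4-LXR reporter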
T5 sequence (P55055 whole entry): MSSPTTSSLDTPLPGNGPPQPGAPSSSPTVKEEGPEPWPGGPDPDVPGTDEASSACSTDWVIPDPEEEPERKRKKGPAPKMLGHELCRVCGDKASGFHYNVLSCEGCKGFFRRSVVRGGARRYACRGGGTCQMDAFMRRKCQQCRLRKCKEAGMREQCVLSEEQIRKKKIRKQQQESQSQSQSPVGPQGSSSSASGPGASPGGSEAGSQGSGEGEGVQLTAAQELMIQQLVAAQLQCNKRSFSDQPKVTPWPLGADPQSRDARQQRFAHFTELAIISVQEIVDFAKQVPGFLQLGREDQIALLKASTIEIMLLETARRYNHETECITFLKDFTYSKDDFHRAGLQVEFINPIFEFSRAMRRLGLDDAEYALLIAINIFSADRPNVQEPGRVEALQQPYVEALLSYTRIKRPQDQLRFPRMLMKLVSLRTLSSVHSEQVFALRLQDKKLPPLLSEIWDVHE

[16] = cells
[17] = THP-1 cell cytotoxicity, dose response, cytotoxicity control for Vif-APOBEC3G degradation inhibitor project, THP-1 cells (AID 1117359); format: functional; settings: Human immunodeficiency virus 1, THP-1
[18] = target: Mu-type opioid receptor (Homo sapiens, UniProt P35372); format: functional, cell-based;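 also: U2OS cells with beta-arrestin recruitment to OPRM1 by beta-gal complementation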
[19] = target: 5-hydroxytryptamine receptor 2A (Mus musculus, UniProt P35363); format: functional, cell-based;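 also: CHO-K1 cells with tagged receptor and beta-arrestin; agonist potency measured as compound-induced activation of the receptor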
Sequence of 5-hydroxytryptamine receptor 2A (P35363 whole entry): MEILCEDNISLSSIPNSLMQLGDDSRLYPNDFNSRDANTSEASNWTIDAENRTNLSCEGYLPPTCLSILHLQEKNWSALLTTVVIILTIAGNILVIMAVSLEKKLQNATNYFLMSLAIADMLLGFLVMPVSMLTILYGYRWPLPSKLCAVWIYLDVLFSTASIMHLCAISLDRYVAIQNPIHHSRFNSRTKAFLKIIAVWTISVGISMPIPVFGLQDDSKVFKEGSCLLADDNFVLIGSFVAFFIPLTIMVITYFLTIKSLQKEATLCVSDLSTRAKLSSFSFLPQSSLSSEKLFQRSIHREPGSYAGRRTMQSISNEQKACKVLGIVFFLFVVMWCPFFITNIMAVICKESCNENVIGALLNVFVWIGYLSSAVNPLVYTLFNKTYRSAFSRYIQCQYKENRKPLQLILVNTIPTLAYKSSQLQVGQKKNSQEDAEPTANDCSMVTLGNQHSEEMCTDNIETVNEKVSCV

Sequence of Mu-type opioid receptor (P35372 whole entry): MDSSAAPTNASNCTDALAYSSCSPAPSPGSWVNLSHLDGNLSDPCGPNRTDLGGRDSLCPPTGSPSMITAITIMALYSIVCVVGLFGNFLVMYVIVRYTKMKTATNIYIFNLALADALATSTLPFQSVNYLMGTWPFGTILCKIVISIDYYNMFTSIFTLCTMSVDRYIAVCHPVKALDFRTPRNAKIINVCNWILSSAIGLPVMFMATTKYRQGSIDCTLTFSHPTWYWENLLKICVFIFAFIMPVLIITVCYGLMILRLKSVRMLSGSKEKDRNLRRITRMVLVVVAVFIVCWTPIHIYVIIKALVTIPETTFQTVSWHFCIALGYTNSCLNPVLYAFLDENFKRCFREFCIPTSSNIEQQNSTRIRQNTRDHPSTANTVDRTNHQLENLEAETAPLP
Sequence of Mitogen-activated protein kinase 10 (P53779 whole entry): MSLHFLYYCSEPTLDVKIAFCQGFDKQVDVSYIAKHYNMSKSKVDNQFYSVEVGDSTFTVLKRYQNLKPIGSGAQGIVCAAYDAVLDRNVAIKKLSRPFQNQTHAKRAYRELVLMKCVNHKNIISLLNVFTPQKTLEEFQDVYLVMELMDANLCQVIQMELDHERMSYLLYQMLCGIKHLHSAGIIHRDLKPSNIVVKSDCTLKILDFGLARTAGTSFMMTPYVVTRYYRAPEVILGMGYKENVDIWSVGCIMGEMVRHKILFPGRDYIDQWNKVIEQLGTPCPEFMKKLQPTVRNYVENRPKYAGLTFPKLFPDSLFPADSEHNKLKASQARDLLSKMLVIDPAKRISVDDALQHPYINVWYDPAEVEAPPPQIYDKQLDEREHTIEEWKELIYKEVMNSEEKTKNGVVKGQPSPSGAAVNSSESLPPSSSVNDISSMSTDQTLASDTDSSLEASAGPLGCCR
Sequence of Luciferin 4-monooxygenase (P08659 whole entry): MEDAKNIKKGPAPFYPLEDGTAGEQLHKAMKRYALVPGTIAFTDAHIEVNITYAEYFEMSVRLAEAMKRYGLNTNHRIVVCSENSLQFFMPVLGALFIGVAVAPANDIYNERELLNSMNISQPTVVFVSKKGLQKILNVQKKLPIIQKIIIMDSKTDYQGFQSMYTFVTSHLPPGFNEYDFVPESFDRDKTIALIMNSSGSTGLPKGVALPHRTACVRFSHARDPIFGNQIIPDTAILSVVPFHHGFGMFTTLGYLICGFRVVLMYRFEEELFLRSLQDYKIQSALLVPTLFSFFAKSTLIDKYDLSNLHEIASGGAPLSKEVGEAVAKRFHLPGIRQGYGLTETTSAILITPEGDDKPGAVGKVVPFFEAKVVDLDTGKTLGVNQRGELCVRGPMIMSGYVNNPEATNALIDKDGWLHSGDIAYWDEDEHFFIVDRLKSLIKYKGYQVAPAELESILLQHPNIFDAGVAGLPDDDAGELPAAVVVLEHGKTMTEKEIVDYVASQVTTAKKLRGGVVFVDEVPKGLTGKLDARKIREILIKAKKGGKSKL
Sequence of Paired box protein Pax-8 (Q06710 whole entry): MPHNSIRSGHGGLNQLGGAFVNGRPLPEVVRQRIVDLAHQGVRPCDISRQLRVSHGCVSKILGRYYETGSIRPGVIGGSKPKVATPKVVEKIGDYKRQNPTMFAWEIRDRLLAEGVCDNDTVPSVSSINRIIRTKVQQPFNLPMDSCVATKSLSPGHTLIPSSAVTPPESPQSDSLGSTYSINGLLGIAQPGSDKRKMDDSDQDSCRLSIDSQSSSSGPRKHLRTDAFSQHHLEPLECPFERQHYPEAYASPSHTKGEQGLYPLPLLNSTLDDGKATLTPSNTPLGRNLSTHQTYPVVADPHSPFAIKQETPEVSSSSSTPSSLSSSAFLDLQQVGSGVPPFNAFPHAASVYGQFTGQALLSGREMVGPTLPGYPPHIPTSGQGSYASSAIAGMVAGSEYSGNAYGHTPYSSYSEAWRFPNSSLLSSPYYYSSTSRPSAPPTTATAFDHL

## O=C(Nc1ccc(C(=O)O)cc1)/C(=C\C=C\c1ccccc1)NC(=O)c1cccc(Br)c1
[1]
  CC50: 33.7 µM (active)
[2]
  IC50: 60.7 µM (inactive)
[3]
  IC50: 83.3 µM (inactive)
[4]
  IC50: 45.6 µM (inactive)

## CC(CNC(=S)Nc1cc(F)cc(F)c1)CSc1ccc(Cl)cc1 (stereo unspecified)
[5]
  EC50: 30 µM (active)
[6]
  IC50: 13.5 µM (not active)
[2]
  IC50: 15.4 µM (inactive)
[4]
  IC50: 23.9 µM (inactive)

## COc1cc(CC(=O)Nc2nccs2)cc(OC)c1OC
[7]
  EC50: > 160 µM (inactive)
[8]
  EC50: > 38 µM (not active)
[9]
  IC50: > 93.1 µM (not active)

## COc1ccccc1C#Cc1ccc2c(c1)O[C@H](CN(C)Cc1cccnc1)[C@H](C)CN([C@H](C)CO)S2(=O)=O
[10]
  AC50: 8.98 µM (active)
[11]
  AC50: 31.8 µM (active)

## Cn1c(-c2ccco2)nc2cc3ccccc3cc21
[12]
  EC50: 0.695 µM (active)
[13]
  EC50: 2.69 µM (active)
[14]
  IC50: 33.9 µM (active)
[15]
  EC50: > 67.5 µM (inactive)
[16]
  EC50: > 67.5 µM (inactive)

## COc1ccc(Cc2nnc(NC(=O)CSc3ccccc3)s2)cc1
[17]
  CC50: > 40 µM (active)

## COc1ccc(NC(=O)CSc2ccc(-c3ccccn3)nn2)cc1OC
[18]
  EC50: 92.4 µM (inactive)
[19]
  EC50: 0.589 µM (active)
